Article PMC11204201 (Science Advances, 2024)

Tests used:
OleT = molecular target: T1, OleT (Jeotgalicoccus sp. ATCC 8456, UniProt E9NSU2); assay: 1-undecene production, total turnover; type: biochemical; details: CamAB redox partner system
T1 sequence (E9NSU2 1-422): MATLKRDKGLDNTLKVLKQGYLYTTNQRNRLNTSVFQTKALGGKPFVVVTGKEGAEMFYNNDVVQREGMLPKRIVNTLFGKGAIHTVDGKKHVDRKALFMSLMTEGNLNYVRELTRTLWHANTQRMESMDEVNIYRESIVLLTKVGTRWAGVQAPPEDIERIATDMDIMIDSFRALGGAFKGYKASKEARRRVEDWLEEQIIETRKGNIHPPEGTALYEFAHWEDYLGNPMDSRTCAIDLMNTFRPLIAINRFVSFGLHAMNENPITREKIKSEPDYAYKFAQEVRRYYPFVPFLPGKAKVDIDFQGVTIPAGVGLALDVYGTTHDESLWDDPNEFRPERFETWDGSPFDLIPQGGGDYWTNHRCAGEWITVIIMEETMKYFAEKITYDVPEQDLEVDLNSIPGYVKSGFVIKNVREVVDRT

UndA = molecular target: T2, UndA (Pseudomonas putida, UniProt A5W7G6); assay: 1-undecene production, total turnover; type: biochemical; details: optimal conditions of UndA; details in supplement
T2 sequence (A5W7G6 1-271): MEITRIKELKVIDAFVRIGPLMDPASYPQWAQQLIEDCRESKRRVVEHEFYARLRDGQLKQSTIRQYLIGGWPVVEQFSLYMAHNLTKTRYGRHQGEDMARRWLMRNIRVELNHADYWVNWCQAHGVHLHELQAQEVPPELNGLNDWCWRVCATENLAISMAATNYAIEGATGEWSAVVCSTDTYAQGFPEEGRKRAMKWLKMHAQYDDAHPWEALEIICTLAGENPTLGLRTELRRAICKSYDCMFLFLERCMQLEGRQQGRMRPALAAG

Structure (SMILES): CCCCCCCCCCCC(=O)O [compound 5, lauric acid]
- 1-undecene production, total turnover (OleT): UndB, OleT, and OleT-AldO showed substantial 1-undecene production (fig. S6)
- 1-undecene production, total turnover (UndA): While UndA exhibited poor activity
